Data as given in patent US9180107B2 (NANOPHARMACEUTICALS LLC, priority 2009, dated 2015).

Legend:
[1] = test system: Human adenoid cystic carcinoma TGS112T cells; assay: [3H]-thymidine incorporation; assay type: cell-based; conditions: 10^−7 M, 24 h
Method: TGS112T cells were seeded in 24-well trays and exposed to 10% hormone-depleted FBS-supplemented medium for 2 d, then treated with 0.25% hormone-depleted FBS-supplemented medium prior to starting the experiments. Aliquots of cells were treated with T4, tetrac or nano-tetrac as indicated, as well as 1 μCi [^3H]-thymidine (final concentration, 13 nM) for 24 h. Cells were then washed twice with cold PBS. TCA (5%, 1 mL) was added and the plate was held at 4° C. for 30 min. The precipitate was washed twice with cold ethanol; 2% SDS (1 mL) was added to each well and the TCA-precipitable radioactivity was quantitated in a liquid scintillation counter.
(§1) Human adenoid cystic carcinoma TGS112T cells were cultured in medium that contained 0.25% hormone-stripped serum for 2 d and then treated with 10^−7 M tetrac or nano-tetrac for 30 min prior institution of 10^−7 M T4 treatment for 24 h. Nuclear proteins were separated by SDS-PAGE followed by western blot analysis with proliferating-cell nuclear antigen (PCNA) antibody. Thyroid hormone-induced PCNA accumulation was inhibited by tetrac. (See FIG. 6A). […] (See FIG. 6A). Inhibition of thyroid hormone-induced proliferation was confirmed by inhibition by tetrac and nano-tetrac of thyroid hormone-induced accumulation and [^3H]-thymidine incorporation. (See FIG. 6B). […] (See FIG. 6B). […] The effect of nano-tetrac and tetrac on cell proliferation was examined by counting TGS112T cells which were treated daily with 10^−6 M tetrac or 10^−6 M nano-tetrac. […] (See FIG. 6C).

[2] = test system: Human adenoid cystic carcinoma TGS112T cells; assay: PCNA western blot (thyroid hormone-induced proliferation); assay type: cell-based; conditions: 10^−7 M, 24 h
Excerpt: The techniques have been described in a number of publications. (See Davis et al., 2006. Cancer Res. 66:7270-7275; Lin et al., 2007. Steroids. 72:180-187; Lin et al., 2008. Carcinogenesis. 29:62-69; and Davis et al., 2004. Circ Res. 94:1500-1506, each of which is herein incorporated by reference in its entirety). Nucleoproteins were separated on discontinuous SDS-PAGE (9% gels) and the proteins transferred by electroblotting to nitrocellulose membranes (Millipore, Bedford, Mass.). After blocking with 5% milk in Tris-buffered saline containing 0.1% Tween, the membranes were incubated with selected primary antibodies overnight. The secondary antibodies were either goat anti-rabbit IgG (1:1000, Dako, Carpenteria, Calif.) or rabbit anti-mouse IgG (1:1000, Dako), depending upon the origin of the primary antibody. Immunoreactive proteins were then detected by chemiluminescence.
as §1

For `N[C@@H](Cc1cc(I)c(Oc2cc(I)c(O)c(I)c2)c(I)c1)C(=O)O` [T4, L-thyroxine, reference compound], the “effect of agent alone on thymidine incorporation” value [1] was “increased thymidine incorporation” and the “Proliferation of TGS112T cells (agent alone)” value [2] was “stimulated”.
